Results: ChEMBL document CHEMBL1141178, “Identification of 4-substituted 1,2,3-triazoles as novel oxazolidinone antibacterial agents with reduced activity against monoamine oxidase A” (J Med Chem, 2005)
In brackets after ≈: the same amount, converted by molar mass.

Assays:
[1] = molecular target: T1, Amine oxidase [flavin-containing] A (Homo sapiens, UniProt P21397); experiment: Binding affinity for human liver monoamine oxidase A
T1 sequence (P21397 whole entry): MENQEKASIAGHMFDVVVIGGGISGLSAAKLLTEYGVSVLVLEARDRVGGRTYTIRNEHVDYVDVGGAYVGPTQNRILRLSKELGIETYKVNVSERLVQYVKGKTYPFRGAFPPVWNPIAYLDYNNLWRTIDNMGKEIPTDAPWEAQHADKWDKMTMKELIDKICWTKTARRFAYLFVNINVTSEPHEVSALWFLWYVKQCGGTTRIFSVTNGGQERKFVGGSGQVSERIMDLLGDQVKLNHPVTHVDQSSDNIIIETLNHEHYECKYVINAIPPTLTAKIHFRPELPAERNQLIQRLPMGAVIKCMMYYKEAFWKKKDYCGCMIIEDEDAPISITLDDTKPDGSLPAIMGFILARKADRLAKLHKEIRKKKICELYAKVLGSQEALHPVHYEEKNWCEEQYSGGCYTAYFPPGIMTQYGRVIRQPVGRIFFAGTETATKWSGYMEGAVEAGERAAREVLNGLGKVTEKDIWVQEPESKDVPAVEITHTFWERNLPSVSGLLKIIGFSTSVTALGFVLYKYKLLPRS

Streptococcus pneumoniae = experiment: Minimum inhibitory concentration against penicillin susceptible Streptococcus pneumoniae AP671401; type: functional
[2] = Minimum inhibitory concentration against Haemophilus influenzae ATCC 51907; type: functional
Staphylococcus aureus = experiment: Minimum inhibitory concentration against methicillin susceptible Staphylococcus aureus AP601055; type: functional

SMILES | Ki [1] [µM] | MIC (Streptococcus pneumoniae) [µg/mL] | MIC [2] [µg/mL] | MIC (Staphylococcus aureus) [µg/mL]
O=Cc1cn(C[C@H]2CN(c3ccc(C4=CCS(=O)(=O)CC4)c(F)c3)C(=O)O2)nn1 | 3.2 | 2 (≈ 4.76 µM) | 16 (≈ 38.1 µM) | 16 (≈ 38.1 µM)
CC(=O)NC[C@H]1CN(c2ccc(C3=CCS(=O)(=O)CC3)c(F)c2)C(=O)O1 | 5.9 | 0.25 (≈ 0.654 µM) | 1 (≈ 2.61 µM) | 1 (≈ 2.61 µM)
O=C1O[C@@H](Cn2nncc2F)CN1c1ccc(C2=CCS(=O)(=O)CC2)c(F)c1 | 1.6 | 8 (≈ 19.5 µM) | 64 (≈ 156 µM) | 32 (≈ 78 µM)
CC(C)c1cn(C[C@H]2CN(c3ccc(C4=CCS(=O)(=O)CC4)c(F)c3)C(=O)O2)nn1 | 102 | 4 (≈ 9.21 µM) | 32 (≈ 73.6 µM) | 8 (≈ 18.4 µM)
C#Cc1cn(C[C@H]2CN(c3ccc(C4=CCS(=O)(=O)CC4)c(F)c3)C(=O)O2)nn1 | > 200 | 0.5 (≈ 1.2 µM) | 2 (≈ 4.8 µM) | 2 (≈ 4.8 µM)
CCc1cn(C[C@H]2CN(c3ccc(C4=CCS(=O)(=O)CC4)c(F)c3)C(=O)O2)nn1 | > 200 | 2 (≈ 4.76 µM) | 8 (≈ 19 µM) | 4 (≈ 9.51 µM)
O=C1O[C@@H](Cn2ccnn2)CN1c1ccc(C2=CCS(=O)(=O)CC2)c(F)c1 | 3.4 | 0.5 (≈ 1.27 µM) | 2 (≈ 5.1 µM) | 1 (≈ 2.55 µM)
O=C1O[C@@H](Cn2cc(CO)nn2)CN1c1ccc(C2=CCS(=O)(=O)CC2)c(F)c1 | 47 | 2 (≈ 4.73 µM) | 4 (≈ 9.47 µM) | 32 (≈ 75.8 µM)
O=C1O[C@@H](Cn2cc(F)nn2)CN1c1ccc(C2=CCS(=O)(=O)CC2)c(F)c1 | 0.5 | 0.25 (≈ 0.609 µM) | 2 (≈ 4.87 µM) | 1 (≈ 2.44 µM)
O=C1O[C@@H](Cn2cc(COP(=O)(Oc3ccccc3)Oc3ccccc3)nn2)CN1c1ccc(C2=CCS(=O)(=O)CC2)c(F)c1 | > 100 | 4 (≈ 6.11 µM) | 64 (≈ 97.8 µM) | 32 (≈ 48.9 µM)
CC(C)(C)OC(=O)c1cn(C[C@H]2CN(c3ccc(C4=CCS(=O)(=O)CC4)c(F)c3)C(=O)O2)nn1 | 3.5 | > 64 | > 64 | > 64
O=C1O[C@@H](Cn2cc(/C=C/Br)nn2)CN1c1ccc(C2=CCS(=O)(=O)CC2)c(F)c1 | > 200 | 2 (≈ 4.02 µM) | 8 (≈ 16.1 µM) | 8 (≈ 16.1 µM)
N#CCc1cn(C[C@H]2CN(c3ccc(C4=CCS(=O)(=O)CC4)c(F)c3)C(=O)O2)nn1 | > 200 | 1 (≈ 2.32 µM) | 2 (≈ 4.64 µM) | 16 (≈ 37.1 µM)
C[Si](C)(C)C#Cc1cn(C[C@H]2CN(c3ccc(C4=CCS(=O)(=O)CC4)c(F)c3)C(=O)O2)nn1 | > 200 | 1 (≈ 2.05 µM) | > 64 | > 64
O=C1O[C@@H](Cn2cc(C=C(Br)Br)nn2)CN1c1ccc(C2=CCS(=O)(=O)CC2)c(F)c1 | > 100 | 4 (≈ 6.94 µM) | > 64 | > 64
O=C1O[C@@H](Cn2cc(Cl)nn2)CN1c1ccc(C2=CCS(=O)(=O)CC2)c(F)c1 | 3 | 0.25 (≈ 0.586 µM) | 1 (≈ 2.34 µM) | 1 (≈ 2.34 µM)
O=C1O[C@@H](Cn2cc(Br)nn2)CN1c1ccc(C2=CCS(=O)(=O)CC2)c(F)c1 | 16 | 0.5 (≈ 1.06 µM) | 2 (≈ 4.24 µM) | 2 (≈ 4.24 µM)
Cc1cn(C[C@H]2CN(c3ccc(C4=CCS(=O)(=O)CC4)c(F)c3)C(=O)O2)nn1 | 25 | 0.5 (≈ 1.23 µM) | 2 (≈ 4.92 µM) | 1 (≈ 2.46 µM)
Cc1cnnn1C[C@H]1CN(c2ccc(C3=CCS(=O)(=O)CC3)c(F)c2)C(=O)O1 | 4.5 | 64 (≈ 157 µM) | > 64 | > 64
